Values quoted from earlier work in patent publication US9011898B2, “Composition for active principles delivery containing a fatty acid excipient” (CID S.p.A., priority 2010, dated 2015).

Details: aqueous solutions

In the case of `CO[C@H]1C[C@@H]2CC[C@@H](C)[C@@](O)(O2)C(=O)C(=O)N2CCCC[C@H]2C(=O)O[C@H]([C@H](C)C[C@@H]2CC[C@@H](O)[C@H](OC)C2)CC(=O)[C@H](C)/C=C(\C)[C@@H](O)[C@@H](OC)C(=O)[C@H](C)C[C@H](C)/C=C/C=C/C=C/1C` [Sirolimus], the “Stability in aqueous environments at neutral or basic pH with respect to acidic pH” value is given as “less stable”.
